Results on 5 compounds are retold here after the supplement of paper PMC11061612.

Holding throughout (test): Bliss excess, mean over the matrix (fraction); higher = more synergy
Assay [1] relates to NCI-H64 (Small Cell Lung Carcinoma). In a few lines: (§1)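 After 24 hours at 37°C and 5% CO2 in 1536-well plates, cells in DMEM/F12 or RPMI plus 10% FBS received two-drug dose matrices for 72 hours. Viability came from CellTiter-Glo 2.0 luminescence and was scaled as inhibition, anchored at 0 by vehicle wells and at 1 by blank wells. Combination Emax is taken as the second-highest inhibition in the matrix, and Bliss excess as the observed combination effect less EA + EB − EA·EB, with EA and EB the single-agent effects.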

Assay [2] relates to A3-KAW (B-Cell Non-Hodgkin's Lymphoma). In a few lines: as §1
Assay [3] deals with SK-MES-1 (Squamous Cell Lung Carcinoma). In a few lines:
as §1

For assay [4], the system named is CAPAN-2 (Pancreatic Carcinoma). In a few lines: as §1
Another assay has as its system PA-1 (Ovarian Carcinoma). In a few lines: as §1
Assay [5] relates to COLO-824 (Breast Carcinoma). In outline: as §1
Another assay deals with A498 (Kidney Carcinoma). In a few lines: as §1
Assay [6] relates to ONS-76 (Other Solid Carcinomas). In outline:
as §1

Assay [7] deals with NCI-H1666 (Lung Adenocarcinoma). In outline: as §1
A further assay relates to Hs-445 (Non-Cancerous). In outline: as §1
Assay [8] has as its system A549 (Lung Adenocarcinoma). In a few lines: as §1
For assay [9], the system named is CCK-81 (Colorectal Carcinoma). In a few lines: as §1
Assay [10] relates to BICR22 (Oral Cavity Carcinoma). In outline:
as §1

In assay [11] the test system is ECC10 (Gastric Carcinoma). In a few lines: as §1
Assay [12] deals with COR-L311 (Small Cell Lung Carcinoma). In outline: as §1
In the next assay the test system is FU97 (Gastric Carcinoma). In a few lines:
as §1

Assay [13] relates to JSC-1 (B-Cell Non-Hodgkin's Lymphoma). In a few lines:
as §1

A further assay concerns LN-405 (Glioblastoma). In a few lines:
as §1

Assay [14] concerns NCI-H1650 (Lung Adenocarcinoma). In a few lines:
as §1

The test system of assay [15] is KARPAS-422 (B-Cell Non-Hodgkin's Lymphoma). In outline: as §1

Consider `CC1(C)CCC(CN2CCN(c3ccc(C(=O)NS(=O)(=O)c4ccc(NCC5CCOCC5)c([N+](=O)[O-])c4)c(Oc4cnc5[nH]ccc5c4)c3)CC2)=C(c2ccc(Cl)cc2)C1` [Venetoclax] + COc1cc(Nc2ncc3c(n2)-c2ccc(Cl)cc2C(c2c(F)cccc2OC)=NC3)ccc1C(=O)O [Alisertib] (first compound max 1 µM, 7x7, partner max 10 µM), for which the Bliss excess is 0.194 in assay [1]; -0.156 in [2]; -0.0201 in assay [3]; -0.0463 in [4]; 0.0385 in the assay with PA-1 (Ovarian Carcinoma); 0.206 in [5]. Moreover, the Bliss excess with A498 (Kidney Carcinoma) is -0.0352; in assay [6], -0.0478; in assay [7], -0.0713; in the assay on Hs-445 (Non-Cancerous), 0.374; in assay [8], -0.0696; in assay [9] it was 0.0196. Also, the Bliss excess is 0.0052 in assay [10]; -0.0281 in assay [11]; 0.0981 in [12]; -0.0524 in the assay on FU97 (Gastric Carcinoma); 0.0504 in [13]; -0.0196 with LN-405 (Glioblastoma). Also, the values for the Bliss excess in assay [14] and in assay [15] were -0.0515 and 0.137, respectively.

Regarding `CC1(C)CCC(CN2CCN(c3ccc(C(=O)NS(=O)(=O)c4ccc(NCC5CCOCC5)c([N+](=O)[O-])c4)c(Oc4cnc5[nH]ccc5c4)c3)CC2)=C(c2ccc(Cl)cc2)C1` [Venetoclax] + C[C@@H]1COCCN1C2=NC(=NC(=C2)C3(CC3)[S@](=N)(=O)C)C4=C5C=CNC5=NC=C4 [AZD6738] (first compound max 1 µM, 7x7, partner max 10 µM), the Bliss excess in assay [1] is -0.0054; in assay [2], 0.008; in assay [3] it was -0.0215; in [4], -0.0439; in the assay on PA-1 (Ovarian Carcinoma), -0.006; in [5], -0.0203. Besides, the Bliss excess is -0.0459 with A498 (Kidney Carcinoma); -0.0531 in assay [6]; -0.0405 in assay [7]; 0.0577 in the assay on Hs-445 (Non-Cancerous); -0.0465 in assay [8]; -0.0197 in assay [9]. In addition, the Bliss excess in assay [10] is -0.0511; in [11], -0.0132; in assay [12], -0.0291; in the assay with FU97 (Gastric Carcinoma), -0.0455; in assay [13], -0.0148; in the assay on LN-405 (Glioblastoma), -0.016. Further, the Bliss excess in assay [14] was -0.0605; in assay [15], -0.0055.

Consider `CC1(C)CCC(CN2CCN(c3ccc(C(=O)NS(=O)(=O)c4ccc(NCC5CCOCC5)c([N+](=O)[O-])c4)c(Oc4cnc5[nH]ccc5c4)c3)CC2)=C(c2ccc(Cl)cc2)C1` [Venetoclax] + C[C@@H](Nc1cc(F)cc(F)c1)c1cc(C(=O)N(C)C)cc2c(=O)cc(N3CCOCC3)oc12 [AZD8186] (first compound max 1 µM, 7x7, partner max 3 µM), for which the Bliss excess in assay [1] was 0.0288; in [2], -0.0047; in assay [3] it was 0.0051; in [4], -0.0167; in the assay on PA-1 (Ovarian Carcinoma), -0.0401; in [5] it was 0.139. Besides, the Bliss excess with A498 (Kidney Carcinoma) is -0.043; in [6], -0.025; in [7], -0.0705; in the assay with Hs-445 (Non-Cancerous), 0.0888; in [8], -0.0073; in [9] it was -0.0287. Moreover, the Bliss excess is -0.0378 in [10]; 0.0539 in [11]; 0.0257 in [12]; -0.0019 in the assay on FU97 (Gastric Carcinoma); -0.0218 in assay [13]; -0.0013 in the assay on LN-405 (Glioblastoma). The Bliss excess is -0.019 in assay [14] and 0.0808 in assay [15].

On to `CC1(C)CCC(CN2CCN(c3ccc(C(=O)NS(=O)(=O)c4ccc(NCC5CCOCC5)c([N+](=O)[O-])c4)c(Oc4cnc5[nH]ccc5c4)c3)CC2)=C(c2ccc(Cl)cc2)C1` [Venetoclax] + Cc1cc2ncnn2cc1Nc1ncc2c(n1)n(C1CCOCC1)c(=O)n2C [AZD7648] (first compound max 1 µM, 7x7, partner max 10 µM), for which the Bliss excess was -0.056 in assay [1]; 0.0185 in assay [2]; -0.0002 in [3]; -0.0083 in assay [4]; -0.0014 in the assay on PA-1 (Ovarian Carcinoma); 0.0222 in assay [5]. In addition, the Bliss excess in the assay on A498 (Kidney Carcinoma) is -0.0755; in assay [6] it was -0.0499; in assay [7], -0.0821; with Hs-445 (Non-Cancerous), -0.0081; in [8], -0.0445; in assay [9] it was -0.0114. In addition, the Bliss excess in assay [10] is -0.0376; in assay [11], 0.0065; in assay [12], 0.0472; in the assay on FU97 (Gastric Carcinoma), -0.0387; in assay [13] it was -0.0103; with LN-405 (Glioblastoma), 0.015. The Bliss excess is -0.0446 in [14] and 0.0157 in [15].

As to `CC1(C)CCC(CN2CCN(c3ccc(C(=O)NS(=O)(=O)c4ccc(NCC5CCOCC5)c([N+](=O)[O-])c4)c(Oc4cnc5[nH]ccc5c4)c3)CC2)=C(c2ccc(Cl)cc2)C1` [Venetoclax] + Cn1cnc2c(F)c(Nc3ccc(Br)cc3Cl)c(C(=O)NOCCO)cc21 [Selumetinib] (first compound max 1 µM, 7x7, partner max 3 µM), the Bliss excess in [1] is -0.0243; in [2] it was 0.0127; in [3] it was -0.0572; in assay [4], -0.0256; in the assay with PA-1 (Ovarian Carcinoma), -0.0117; in assay [5], 0.0356. The Bliss excess is 0.024 in the assay on A498 (Kidney Carcinoma); -0.141 in [6]; 0.025 in [7]; 0.0401 in the assay on Hs-445 (Non-Cancerous); -0.0401 in assay [8]; 0.0338 in assay [9]. Also, the Bliss excess in assay [10] was -0.0691; in assay [11] it was 0.0364; in assay [12], -0.0367; in the assay on FU97 (Gastric Carcinoma) it was -0.0378; in assay [13], -0.0184; in the assay on LN-405 (Glioblastoma) it was -0.0598. Also, the Bliss excess was -0.0457 in assay [14] and -0.0238 in [15].
